Experimental data from patent US6750378B2, “Maize H3C4 promoter combined with the first intron of rice actin, chimeric gene comprising it and transformed plant” (Rhone-Poulenc Agro, priority 1997, dated 2004).

Key:
[1] = system: maize lines transformed with corresponding gene with maize adh I intron; assay: Comparative study of herbicide tolerance, maize lines transformed with the corresponding gene with maize adh I intron; format: in vivo; conditions: 20 maize lines, spraying 200 g of active material per hectare (600 μg per tub)
Description: (§1) 800 ml of Fontainebleau sand are placed in a tub of sides 15×20 cm. These tubs are then sprinkled with water and kept moist by supplying a nutrient solution consisting of 5 ml of Quinoligo (Quinoline) per liter of water. Twenty maize seeds are placed in the tubs, which are then treated with isoxaflutole by spraying at a rate of 100 g of active material per hectare (300 μg of active material per tub). The tubs are then cultured in a greenhouse. The phytotoxicity is determined 14 [lacuna] after planting. […] A comparative study was carried out with 20 maize lines transformed according to the invention and 20 maize lines transformed with a corresponding gene for which the sequence encoding the first intron of rice actin has been replaced with the sequence encoding the maize adh I intron. After treating by spraying very high doses of isoxafutole at a rate of 200 g of active material per hectare (600 μg of active material per tub), the following results are obtained: […]

[2] = system: maize lines transformed according to the invention (H3C4 promoter + first intron of rice actin); assay: Comparative study of herbicide tolerance, maize lines transformed according to the invention (rice actin intron); format: in vivo; conditions: 20 maize lines, spraying 200 g of active material per hectare (600 μg per tub)
Description: as §1

`CS(=O)(=O)c1cc(C(F)(F)F)ccc1C(=O)c1cnoc1C1CC1` [isoxaflutole] was tested, and the lines tolerant [1] was 3/20 and the lines tolerant [2] was 8/20.
